Measurements from patent publication EP0067666A1, “Salts of antimicrobial naphthyridine and quinoline compounds and their production” (priority 1981, dated 1982).
Marks after values point to notes of the source that are not given here.

Key:
[1] = Solubility screening procedure (concentration and pH of filtrate); assay type: physicochemical; conditions: for Conc. of CPD A: compound A + equimolar acid; for Conc. of CPD A / Conc. of CPD B: amino acid or base in deionized water, room temperature, filtrate, UV assay; for pH of Solution: pH of the filtrate; for Conc. of CPD B: compound B + equimolar acid
Protocol: (§1) The amount of Compound A or Compound B calculated for selected concentrations was weighed into volumetric flasks. Equimolar quantities of combining acid, amino acid, or base were added either as solutions or in dry form. Deionized water was added to bring the volume to that desired for the preselected concentrations.. All flasks were sonicated for 15 minutes, allowed to stand at room temperature for 30 minutes, then filtered through a fine frit sintered glass funnel. After the pH of the filtrate was taken, suitable dilutions were made into 0.1N HCl for ultraviolet spectrophotometric assay of concentration. Ten fold dilutions of the original filtrates were made into standard I.V. solutions.

[2] = 10x dilution of soluble forms with standard IV solutions (pH, precipitate); assay type: physicochemical; conditions: for Solution 1 ppt 4 hr / Solution 3 ppt 4 hr / Solution 2 ppt 4 hr / Solution 4 ppt 4 hr: precipitate at 4 hr; for Solution 1 ppt 24 hr / Solution 3 ppt 24 hr / Solution 2 ppt 24 hr / Solution 4 ppt 24 hr: precipitate at 24 hr; for Concen. of Cpd B: undiluted concentrated solution (at least 155 mg/ml) used for the Solution 1 dilution (for most salts for all four solutions)
Protocol: as §1

[3] = concentrated Cpd B solution (154-221 mg/ml) diluted 10x with 5% Dextrose
[4] = concentrated Cpd B solution (154-221 mg/ml) diluted 10x with 5% Dextrose + 0.9% NaCl
[5] = concentrated Cpd B solution (154-221 mg/ml) diluted 10x with Lactated Ringer's Solution
[6] = concentrated Cpd B solution (155-221 mg/ml) diluted 10x with 0.9% NaCl
[7] = concentrated Cpd B solution diluted 10x with 5% Dextrose + 0.9% NaCl
[8] = concentrated Cpd B solution diluted 10x with 5% Dextrose
[9] = concentrated Cpd B solution diluted 10x with Lactated Ringer's Solution
[10] = undiluted concentrated Cpd B solution used for the Solution 1 dilution
[11] = Cpd A salt solution diluted 10x with 0.9% NaCl
[12] = Cpd A salt solution diluted 10x with 5% Dextrose
[13] = Cpd A salt solution diluted 10x with 5% Dextrose + 0.9% NaCl
[14] = Cpd A salt solution diluted 10x with Lactated Ringer's Solution

Structure (SMILES) | Conc. of CPD A [1] [µg/mL] | pH of Solution ([1]; CPD A solutions) | Conc. of CPD B [1] [µg/mL] | pH of Solution ([1]; CPD B solutions) | also measured
CCn1cc(C(=O)O)c(=O)c2cc(F)c(N3CCNCC3)cc21 [A D,L-Alanine] | 900 | 6.44 |  |  | 
CCn1cc(C(=O)O)c(=O)c2cc(F)c(N3CCNCC3)cc21 [A Galacturonic] | 166000 | 5.44 |  |  | 
CCn1cc(C(=O)O)c(=O)c2cc(F)c(N3CCNCC3)nc21 [B Lactic] |  |  | 217000 | 4.24^b | Solution 2 pH dil [2, 3]: 4.2; Solution 3 pH dil [2, 4]: 4.1; Solution 4 pH dil [2, 5]: 4.3; Solution 1 pH dil [2, 6]: 4.1; Solution 1 ppt 4 hr [2, 6]: yes; Solution 1 ppt 24 hr [2, 6]: yes; Solution 3 ppt 4 hr [2, 7]: yes; Solution 3 ppt 24 hr [2, 7]: yes; Solution 2 ppt 4 hr [2, 8]: hazy; Solution 2 ppt 24 hr [2, 8]: hazy; Solution 4 ppt 4 hr [2, 9]: yes; Solution 4 ppt 24 hr [2, 9]: yes; pH of Solut. [2, 10]: 4.04; Concen. of Cpd B [2]: 221000 µg/mL
CCn1cc(C(=O)O)c(=O)c2cc(F)c(N3CCNCC3)cc21 [A L-Lysine] | 4200 | 9.5 |  |  | 
CCn1cc(C(=O)O)c(=O)c2cc(F)c(N3CCNCC3)nc21 [B Acetic] |  |  | 195000 | 4.97^c | Solution 2 pH dil [2, 3]: 5.6; Solution 3 pH dil [2, 4]: 5.4; Solution 4 pH dil [2, 5]: 5.3; Solution 1 pH dil [2, 6]: 5.2; Solution 1 ppt 4 hr [2, 6]: yes; Solution 1 ppt 24 hr [2, 6]: yes; Solution 3 ppt 4 hr [2, 7]: yes; Solution 3 ppt 24 hr [2, 7]: yes; Solution 2 ppt 4 hr [2, 8]: slight; Solution 2 ppt 24 hr [2, 8]: slight; Solution 4 ppt 4 hr [2, 9]: slight; Solution 4 ppt 24 hr [2, 9]: yes; pH of Solut. [2, 10]: 4.97; Concen. of Cpd B [2]: 195000 µg/mL
CCn1cc(C(=O)O)c(=O)c2cc(F)c(N3CCNCC3)cc21 [A Succinic] | 128000 | 4.25 |  |  | 
CCn1cc(C(=O)O)c(=O)c2cc(F)c(N3CCNCC3)cc21 [A Hydrochloric] | 201000 | 1.52^a |  |  | Solution 1 pH dil [2, 11]: 2.7; Solution 1 ppt 24 hr [2, 11]: no; Solution 2 pH dil [2, 12]: 2.8; Solution 3 pH dil [2, 13]: 2.7; Solution 3 ppt 24 hr [2, 13]: no; Solution 2 ppt 24 hr [2, 12]: no; Solution 4 pH dil [2, 14]: 4.6; Solution 4 ppt 24 hr [2, 14]: no; pH of Solut. ([2]; undiluted Cpd A solution): 1.52; Concen. of Cpd A ([2]; undiluted solution used for the 10x dilutions): 201000 µg/mL
CCn1cc(C(=O)O)c(=O)c2cc(F)c(N3CCNCC3)nc21 [B Diethanolamine] |  |  | 4300 | 9.7 | 
CCn1cc(C(=O)O)c(=O)c2cc(F)c(N3CCNCC3)cc21 [A L-Proline] | 900 | 6.28 |  |  | 
CCn1cc(C(=O)O)c(=O)c2cc(F)c(N3CCNCC3)cc21 [A Maleic] | 45100 | 2.79 |  |  | 
CCn1cc(C(=O)O)c(=O)c2cc(F)c(N3CCNCC3)nc21 [B Citric] |  |  | 1300 | 3.14 | 
CCn1cc(C(=O)O)c(=O)c2cc(F)c(N3CCNCC3)cc21 [A Oxalic] | 19800 | 2.14 |  |  | 
CCn1cc(C(=O)O)c(=O)c2cc(F)c(N3CCNCC3)cc21 [A Tartaric] | 3500 | 3.02 |  |  | 
CCn1cc(C(=O)O)c(=O)c2cc(F)c(N3CCNCC3)nc21 [B Oxalic] |  |  | 2800 | 1.76^b | 
CCn1cc(C(=O)O)c(=O)c2cc(F)c(N3CCNCC3)nc21 [B Succinic] |  |  | 75000 | 4.45^b | 
CCn1cc(C(=O)O)c(=O)c2cc(F)c(N3CCNCC3)nc21 [B L-Lysine] |  |  | 4300 | 9.4 | 
CCn1cc(C(=O)O)c(=O)c2cc(F)c(N3CCNCC3)cc21 [A Gluconic] | 182000 | 4.3 |  |  | 

Structure (SMILES) | Conc. of CPD A [1] [µg/mL] | pH of Solution ([1]; CPD A solutions) | Conc. of CPD B [1] [µg/mL] | pH of Solution ([1]; CPD B solutions) | also measured
CCn1cc(C(=O)O)c(=O)c2cc(F)c(N3CCNCC3)nc21 [B Maleic] |  |  | 7750 | 2.60 | 
CCn1cc(C(=O)O)c(=O)c2cc(F)c(N3CCNCC3)cc21 [A Citric] | 1500 | 3.32 |  |  | 
CCn1cc(C(=O)O)c(=O)c2cc(F)c(N3CCNCC3)cc21 [A Sodium Hydroxide] | 131000 | 10.0 |  |  | 
CCn1cc(C(=O)O)c(=O)c2cc(F)c(N3CCNCC3)cc21 [A L-Histidine] | 700 | 7.4 |  |  | 
CCn1cc(C(=O)O)c(=O)c2cc(F)c(N3CCNCC3)cc21 [A Diethanolamine] | 7500 | 9.68 |  |  | 
CCn1cc(C(=O)O)c(=O)c2cc(F)c(N3CCNCC3)cc21 [A Lactobionic] | 46500 | 4.65 |  |  | 
CCn1cc(C(=O)O)c(=O)c2cc(F)c(N3CCNCC3)cc21 [A L-Arginine] | 11100 | 9.8 |  |  | 
CCn1cc(C(=O)O)c(=O)c2cc(F)c(N3CCNCC3)nc21 [B Tartaric] |  |  | 7700 | 3.46 | 
CCn1cc(C(=O)O)c(=O)c2cc(F)c(N3CCNCC3)nc21 [B Choline] |  |  | 38200 | 9.8 | 
CCn1cc(C(=O)O)c(=O)c2cc(F)c(N3CCNCC3)nc21 [B Lactobionic] |  |  | 99000 | 3.6 ^b | 
CCn1cc(C(=O)O)c(=O)c2cc(F)c(N3CCNCC3)nc21 [B L-Proline] |  |  | 1100 | 6.92 | 
CCn1cc(C(=O)O)c(=O)c2cc(F)c(N3CCNCC3)nc21 [B Gluconic] |  |  | 168000 | 4.6 | 
CCn1cc(C(=O)O)c(=O)c2cc(F)c(N3CCNCC3)nc21 [B L-Arginine] |  |  | 6700 | 9.7 | 
CCn1cc(C(=O)O)c(=O)c2cc(F)c(N3CCNCC3)nc21 [B Glycine] |  |  | 1200 | 6.87 | 
CCn1cc(C(=O)O)c(=O)c2cc(F)c(N3CCNCC3)nc21 [B L-Histidine] |  |  | 1100 | 7.53 | 
CCn1cc(C(=O)O)c(=O)c2cc(F)c(N3CCNCC3)cc21 [A Choline] | 53500 | 10.34 |  |  | 
CCn1cc(C(=O)O)c(=O)c2cc(F)c(N3CCNCC3)cc21 [A L-Leucine] | 900 | 6.2 |  |  | 
